Experiments:
[1] = tested on: rat vascular ring system precontracted with norepinephrine
[2] = tested on: murine model of renal ischemia-reperfusion injury; design: species or system mice; conditions: mouse, in vivo
[3] = tested on: rat model of myocardial ischemia-reperfusion injury (MIRI); conditions: in vivo
[4] = mouse, in vivo, ip

2-cyano-1-(1-hydroxy-2,2,5,5-tetramethylpyrrolidin-3-yl)-3-(pyridin-3-yl)guanidine [compound 2]
ED50 (ex vivo vasodilator potency) compared to pinacidil [1]: one log greater than that of pinacidil
elevation in plasma blood urea nitrogen (BUN) [2]: profoundly attenuated
elevation in plasma creatinine [2]: profoundly attenuated
elevation in renal myeloperoxidase (MPO) [2]: profoundly attenuated
protection against severe renal tubular necrosis (histologic studies) [2]: near total protection
histologic features of injury (myocyte necrosis, edema, neutrophil infiltration) [3]: profoundly attenuated virtually all histologic features of injury
mean arterial pressure (systemic hypotension) [3]: did not produce systemic hypotension
myocardial myeloperoxidase (MPO) [3]: significantly reduced
tissue infarction (infarct size) [3]: significantly reduced
effect on blood glucose levels compared with saline vehicle group [4]: did not exhibit any significant effect
